Patent US9266835B2, “Quinoline derivatives useful as CB-1 inverse agonists” (JANSSEN PHARMACEUTICA NV, priority 2014, dated 2016)

Experiments:
[1] = target: Human CB1R (Cannabinoid receptor 1) (Homo sapiens (Human), UniProt P21554); test: CB-1 in vitro cAMP assay (HTRF), inverse agonism; assay type: cell-based; conditions: mean where tested more than once
Excerpt: (§1) CB1 and CB2 receptors are Gi-coupled GPCR. Activation of CB1 and CB2 receptors results in a decrease in cAMP production. An inverse agonist of the CB1 or CB2 receptor results in the opposite effect, an increase of cAMP production. The principle of this assay is based on HTRF® technology (Homogeneous Time-Resolved Fluorescence). The method is a competitive immunoassay between native cAMP produced by cells and the cAMP labeled with the fluorophore d2. The tracer binding is quantified by a Mab anti-cAMP labeled with Eu3+TBP-NHS Cryptate (supplied as part of the assay kit). The specific signal (i.e. energy transfer) is inversely proportional to the concentration of cAMP in the standard or sample.
(§2) Human CB1R (Cannabinoid receptor 1) was stably transfected in HEK-293 cells (DiscoveRx, cat: 93-0200C1). Human CB2R (Cannabinoid receptor 2) was stably transfected in HEK-293 cells (DiscoveRx, cat: 93-0201C1). Cell cultures were maintained in media: DMEM (Invitrogen Cat#12430-054) supplemented with 10% HI FBS (Invitrogen Cat#16140-071), 1% L-glutamine (Invitrogen Cat#25030-081), 0.2 mg/ml Hygromycin B (Invitrogen Cat#10687-010), 600 μg/mL G418 (Invitrogen Cat#10131-035), and 1X Penn/Strep (Invitrogen 15140-122). After cell expansion, aliquots were cryo-stored in media containing 5% DMSO (Pierce Cat#20684).
(§3) One day prior to experiments media was warmed to 37° C. and the cryo-stored cells were thawed in a 37° C. water bath. The cells were then added to media (10× volume) and the mixture was centrifuged at 1000 RPM for 5 min. The supernate was removed and the cells were re-suspended in media. A sample of the cell suspension was evaluated on a Cedex XS automated cell counter (Innovatis Systems) to determine viable cells/ml. Additional media was added to the cells to achieve a final cell density of 4E5 cells/mL. The cells were then plated into 384 well PDL white solid bottom plates (Greiner, Cat#781945) at 20 μL per well using a Multidrop (Thermo Scientific). Cells were removed from Row P (location of cAMP standards). Two columns of cells were plated into a clear bottom 384 well PDL coated plate (Greiner, Cat#781944) to view confluence the day of the assay. The cell plates were lidded and stored for 15 minutes in a hood, then transferred to an incubator (37° C., 5% CO2, 95% humidity) overnight.
(§4) DMSO was added to all wells of 384 well V bottom polystyrene plate (Greiner, Cat#781280) except to columns 1 and 13, rows 0 and P and wells M13-M23 and N13-N23. Test compounds (60 μL, 10 mM) were added to Column 1 and 13 (A1 through N1 and A13 through L13). Test compounds were serially diluted 1/3 by transferring and mixing 20 μl sample with 40 μL DMSO.
(§5) DMSO (40 μL) was added to wells of 384 well V bottom polystyrene plate: O2 through O11, M14 through M23, N14 through N23, and O14 through O23. AM630 (also known as [6-iodo-2-methyl-1-[2-(4-morpholinyl)ethyl]-1H-indol-3-yl](4-methoxyphenyl)-methanone, Cayman Chemical, Cat#10006974) (60 μL, 10 mM) was added to 01; and 1-(2,4-dichlorophenyl)-7-[(4-fluorophenyl)methylene]-4,5,6,7-tetrahydro-N-1-piperidinyl-1H-indazole-3-carboxamide (60 μL, 10 mM) was added to N13. The control was serially diluted 1/3 by transferring and mixing 20 μl sample with 40 μL DMSO. This process resulted 11 doses per control, 10 mM to […].
(§6) Cells plated the day prior to the assay in clear bottom plates were viewed on an inverse microscope to ensure confluency in the range of 60-75%. […]

[2] = target: Human CB2R (Cannabinoid receptor 2) (Homo sapiens (Human), UniProt P34972); test: CB-2 in vitro cAMP assay (HTRF), inverse agonism; assay type: cell-based; conditions: mean where tested more than once
Excerpt: as §1, §2, §3, §4, §5, §6

Chain of Human CB2R (Cannabinoid receptor 2) (P34972 whole entry): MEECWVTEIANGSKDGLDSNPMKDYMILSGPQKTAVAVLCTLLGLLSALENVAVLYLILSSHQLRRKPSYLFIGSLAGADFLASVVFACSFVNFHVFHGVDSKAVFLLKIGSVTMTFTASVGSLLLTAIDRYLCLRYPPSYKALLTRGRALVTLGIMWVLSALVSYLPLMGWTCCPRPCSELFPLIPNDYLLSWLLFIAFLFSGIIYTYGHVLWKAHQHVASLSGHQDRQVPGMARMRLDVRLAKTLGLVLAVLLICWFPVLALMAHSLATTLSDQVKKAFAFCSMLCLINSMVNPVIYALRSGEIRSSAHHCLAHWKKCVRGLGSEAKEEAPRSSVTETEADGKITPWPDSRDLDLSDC
Chain of Human CB1R (Cannabinoid receptor 1) (P21554 whole entry): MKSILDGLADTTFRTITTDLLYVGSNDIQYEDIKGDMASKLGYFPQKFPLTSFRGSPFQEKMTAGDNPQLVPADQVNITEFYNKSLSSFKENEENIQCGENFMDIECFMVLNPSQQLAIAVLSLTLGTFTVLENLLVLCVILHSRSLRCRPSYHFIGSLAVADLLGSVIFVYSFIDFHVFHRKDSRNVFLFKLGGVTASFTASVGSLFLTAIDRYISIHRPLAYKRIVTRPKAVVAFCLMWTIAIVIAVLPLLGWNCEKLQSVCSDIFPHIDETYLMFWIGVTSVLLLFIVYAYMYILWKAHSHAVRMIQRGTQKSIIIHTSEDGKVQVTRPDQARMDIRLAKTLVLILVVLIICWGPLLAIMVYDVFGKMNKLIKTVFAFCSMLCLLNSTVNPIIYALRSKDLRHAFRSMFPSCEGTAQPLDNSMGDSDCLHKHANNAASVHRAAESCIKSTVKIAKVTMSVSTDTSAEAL

Structure (SMILES)	EC50 [1] [nM]	EC50 [2] [nM]
OC(c1ccc(Cl)cc1)(c1ccc2nccc(/C=C\c3ccccc3)c2c1)c1cscn1 (mixture of isomers) [Compound 516, (Z)-(4-chlorophenyl)(4-styrylquinolin-6-yl)(thiazol-4-yl)methanol]	3270	200
O=c1cc(CCc2cccc(Cl)c2)c2cc(C(O)(c3ccc(Cl)cc3)c3nccs3)ccc2[nH]1 (stereo not shown) [Compound 8, 4-(3-chlorophenethyl)-6-((4-chlorophenyl)(hydroxy)(thiazol-2-yl)methyl)quinolin-2(1H)-one]	876	> 10000
Cn1c(=O)cc(CCc2cccc(Cl)c2)c2cc(C(c3ccc(Cl)cc3)c3nccs3)ccc21 (stereo not shown) [Compound 9, 4-(3-chlorophenethyl)-6-((4-chlorophenyl)(thiazol-2-yl)methyl)-1-methylquinolin-2(1H)-one]	169	> 10000
O=c1cc(CCc2cccc(Cl)c2)c2cc(C(c3ccc(Cl)cc3)c3nccs3)ccc2[nH]1 (stereo not shown) [Compound 11, 4-(3-chlorophenethyl)-6-((4-chlorophenyl)(thiazol-2-yl)methyl)quinolin-2(1H)-one]	121	> 10000
CC(C)(C)OC(=O)N1CC=C(c2cc(=O)[nH]c3ccc(C(c4ccc(Cl)cc4)c4ccc(Cl)cc4)cc23)CC1 [Compound 13, tert-Butyl 4-{6-[bis(4-chlorophenyl)methyl]-2-oxo-1,2-dihydroquinolin-4-yl}-3,6-dihydropyridine-1(2H)-carboxylate]	403	> 10000
O=C(N1CC=C(c2cc(=O)[nH]c3ccc(C(c4ccc(Cl)cc4)c4ccc(Cl)cc4)cc23)CC1)C(F)(F)F [Compound 14, 6-(bis(4-chlorophenyl)methyl)-4-(1-(2,2,2-trifluoroacetyl)-1,2,3,6-tetrahydropyridin-4-yl)quinolin-2(1H)-one]	254	> 10000
O=c1cc(/C=C/c2cccc(F)c2)c2cc(C(c3ccc(Cl)cc3)c3ccc(Cl)cc3)ccc2[nH]1 [Compound 15, 6-[Bis(4-chlorophenyl)methyl]-4-[(E)-2-(3-fluorophenyl)ethenyl]quinolin-2(1H)-one]	702	660
O=c1cc(/C=C/c2cccc(F)c2)c2cc(C(c3ccc(Cl)cc3)c3ccsc3)ccc2[nH]1 (stereo not shown) [Compound 16, 6-[(4-Chlorophenyl)(thiophen-3-yl)methyl]-4-[(E)-2-(3-fluorophenyl)ethenyl]quinolin-2(1H)-one]	83	90
O=c1cc(C2=CCN(S(=O)(=O)C(F)(F)F)CC2)c2cc(C(c3ccc(Cl)cc3)c3ccc(Cl)cc3)ccc2[nH]1 [Compound 17, 6-(bis(4-chlorophenyl)methyl)-4-(1-((trifluoromethyl)sulfonyl)-1,2,3,6-tetrahydropyridin-4-yl)quinolin-2(1H)-one]	827	80
O=c1cc(/C=C\c2ccc(C(F)(F)F)cc2)c2cc(C(c3ccc(Cl)cc3)c3cccs3)ccc2[nH]1 (stereo not shown) [Compound 18, 6-[(4-Chlorophenyl)(thiophen-2-yl)methyl]-4-{(Z)-2-[4-(trifluoromethyl)phenyl]-ethenyl}quinolin-2(1H)-one]	875	> 10000
O=c1cc(/C=C/c2ccc(C(F)(F)F)cc2)c2cc(C(c3ccc(Cl)cc3)c3cccs3)ccc2[nH]1 (stereo not shown) [Compound 19, 6-[(4-Chlorophenyl)(thiophen-2-yl)methyl]-4-{(E)-2-[4-(trifluoromethyl)phenyl]-ethenyl}quinolin-2(1H)-one]	59	> 10000
O=c1cc(/C=C/c2ccccc2)c2cc(C(c3ccc(Cl)cc3)c3cccs3)ccc2[nH]1 (stereo not shown) [Compound 21, 6-[(4-Chlorophenyl)(thiophen-2-yl)methyl]-4-[(E)-2-phenylethenyl]quinolin-2(1H)-one]	4140	> 10000
O=c1cc(/C=C/c2ccccc2)c2cc(C(c3ccc(Cl)cc3)c3nccs3)ccc2[nH]1 (stereo not shown) [Compound 25, (E)-6-((4-chlorophenyl)(thiazol-2-yl)methyl)-4-styrylquinolin-2(1H)-one]	816	> 10000
O=c1cc(/C=C/c2cccc(C(F)(F)F)c2)c2cc(C(c3ccc(Cl)cc3)c3cccs3)ccc2[nH]1 (stereo not shown) [Compound 26, 6-[(4-Chlorophenyl)(thiophen-2-yl)methyl]-4-{(E)-2-[3-(trifluoromethyl)phenyl]-ethenyl}quinolin-2(1H)-one]	333	> 10000
Cc1ccc(/C=C/c2cc(=O)[nH]c3ccc(C(c4ccc(Cl)cc4)c4cccs4)cc23)cc1 (stereo not shown) [Compound 27, 6-[(4-Chlorophenyl)(thiophen-2-yl)methyl]-4-[(E)-2-(4-methylphenyl)ethenyl]-quinolin-2(1H)-one]	443	> 10000
O=c1cc(/C=C/c2ccc(C(F)(F)F)cc2)c2cc(C(c3ccc(Cl)cc3)c3ccc(Cl)s3)ccc2[nH]1 (stereo not shown) [Compound 29, 6-[(4-Chlorophenyl)(5-chlorothiophen-2-yl)methyl]-4-{(E)-2-[4-(trifluoromethyl)phenyl]-ethenyl}quinolin-2(1H)-one]	759	> 10000
O=c1cc(/C=C/c2cccc(F)c2)c2cc(C(c3ccc(Cl)cc3)c3ccc(Cl)s3)ccc2[nH]1 (stereo not shown) [Compound 30, 6-[(4-Chlorophenyl)(5-chlorothiophen-2-yl)methyl]-4-[(E)-2-(3-fluorophenyl)ethenyl]quinolin-2(1H)-one]	1380	> 10000
O=c1cc(/C=C/c2ccccc2)c2cc(C(c3ccc(Cl)cc3)c3ccc(Cl)s3)ccc2[nH]1 (stereo not shown) [Compound 31, 6-[(4-Chlorophenyl)(5-chlorothiophen-2-yl)methyl]-4-[(E)-2-phenylethenyl]quinolin-2(1H)-one]	2280	> 10000
O=c1cc(/C=C/c2cccc(F)c2)c2cc(C(c3ccccc3)c3ccc(Cl)cc3)ccc2[nH]1 (stereo not shown) [Compound 32, 6-[(4-Chlorophenyl)(phenyl)methyl]-4-[(E)-2-(3-fluorophenyl)ethenyl]quinolin-2(1H)-one]	3200	> 10000
O=c1cc(/C=C/c2ccc(C(F)(F)F)cc2)c2cc(C(c3ccccc3)c3ccc(Cl)cc3)ccc2[nH]1 (stereo not shown) [Compound 33, 6-[(4-Chlorophenyl)(phenyl)methyl]-4-{(E)-2-[4-(trifluoromethyl)phenyl]-ethenyl}quinolin-2(1H)-one]	1210	> 10000
O=c1cc(/C=C/c2ccc(Cl)cc2)c2cc(C(c3ccccc3)c3ccc(Cl)cc3)ccc2[nH]1 (stereo not shown) [Compound 34, 4-[(E)-2-(4-Chlorophenyl)ethenyl]-6-[(4-chlorophenyl)(phenyl)methyl]quinolin-2(1H)-one]	1460	> 10000
O=c1cc(N2CCN(S(=O)(=O)C(F)(F)F)CC2)c2cc(C(c3ccc(Cl)cc3)c3nccs3)ccc2[nH]1 (stereo not shown) [Compound 35, 6-[(4-Chlorophenyl)(1,3-thiazol-2-yl)methyl]-4-{4-[(trifluoromethyl)sulfonyl]-piperazin-1-yl}quinolin-2(1H)-one]	322	> 10000
CC(C)(C)OC(=O)N1CC(CNc2cc(=O)[nH]c3ccc(C(c4ccc(Cl)cc4)c4nccs4)cc23)C1 (stereo not shown) [Compound 42, tert-Butyl 3-[({6-[(4-chlorophenyl)(1,3-thiazol-2-yl)methyl]-2-oxo-1,2-dihydroquinolin-4-yl}amino)methyl]azetidine-1-carboxylate]	2330	–
O=c1cc(NCC2CNC2)c2cc(C(c3ccc(Cl)cc3)c3nccs3)ccc2[nH]1 (stereo not shown) [Compound 43, 4-[(Azetidin-3-ylmethyl)amino]-6-[(4-chlorophenyl)(1,3-thiazol-2-yl)methyl]quinolin-2(1H)-one]	> 10000	–
